One block for each molecule: values may come before it.
How the values were obtained:
[1] = system: 786-0; test: Growth inhibition of the 786-O Renal cancer cell line for 2-day in vitro assay.; format: functional; conditions: Homo sapiens, 786-0, 48 h
[2] = system: A498; test: Growth inhibition of the A498 Renal cancer cell line for 2-day in vitro assay.; format: functional; conditions: Homo sapiens, A498, 48 h
[3] = system: A549; test: Growth inhibition of the A549/ATCC non-small cell lung cancer cell line for 2-day in vitro assay.; format: functional; conditions: Homo sapiens, A549, 48 h
[4] = system: ACHN; test: Growth inhibition of the ACHN Renal cancer cell line for 2-day in vitro assay.; format: functional; conditions: Homo sapiens, 48 h
[5] = system: CCRF-CEM; test: Growth inhibition of the CCRF-CEM leukemia cell line for 2-day in vitro assay.; format: functional; conditions: Homo sapiens, 48 h
[6] = system: COLO 205; test: Growth inhibition of the COLO-205 colon cancer cell line for 2-day in vitro assay.; format: functional; conditions: Homo sapiens, COLO 205, 48 h
[7] = system: DU-145; test: Growth inhibition of the DU-145 Prostate cancer cell line for 2-day in vitro assay.; format: functional; conditions: Homo sapiens, DU-145, 48 h
[8] = system: EKVX; test: Growth inhibition of the EKVX non-small cell lung cancer cell line for 2-day in vitro assay.; format: functional; conditions: Homo sapiens, 48 h
[9] = system: HCT-15; test: Growth inhibition of the HCT-15 colon cancer cell line for 2-day in vitro assay.; format: functional; conditions: Homo sapiens, HCT-15, 48 h
[10] = system: HOP-62; test: Growth inhibition of the HOP-62 non-small cell lung cancer cell line for 2-day in vitro assay.; format: functional; conditions: Homo sapiens, HOP-62, 48 h
[11] = system: HCT-116; test: Growth inhibition of the HCT116 colon cancer cell line for 2-day in vitro assay.; format: functional; conditions: Homo sapiens, HCT-116, 48 h
[12] = system: HCC 2998; test: Growth inhibition of the HCC2998 colon cancer cell line for 2-day in vitro assay.; format: functional; conditions: Homo sapiens, HCC 2998, 48 h
[13] = system: HOP-92; test: Growth inhibition of the HOP-92 non-small cell lung cancer cell line for 2-day in vitro assay.; format: functional; conditions: Homo sapiens, HOP-92, 48 h
[14] = system: Hs-578T; test: Growth inhibition of the Hs 578.T Breast cancer cell line for 2-day in vitro assay.; format: functional; conditions: Homo sapiens, 48 h
[15] = system: K562; test: Growth inhibition of the K-562 leukemia cell line for 2-day in vitro assay.; format: functional; conditions: Homo sapiens, K562, 48 h
[16] = system: KM12; test: Growth inhibition of the KM12 colon cancer cell line for 2-day in vitro assay.; format: functional; conditions: Homo sapiens, KM12, 48 h
[17] = system: M14; test: Growth inhibition of the M14 Melanoma cancer cell line for 2-day in vitro assay.; format: functional; conditions: Homo sapiens, M14, 48 h
[18] = system: LOX IMVI; test: Growth inhibition of the LOX IMVI Melanoma cancer cell line for 2-day in vitro assay.; format: functional; conditions: Homo sapiens, 48 h
[19] = system: MDA-MB-435; test: Growth inhibition of the […] Breast cancer cell line for 2-day in vitro assay.; format: functional; conditions: Homo sapiens, MDA-MB-435, 48 h
[20] = system: MCF7; test: In vitro cytotoxicity against MCF-7 human mammary carcinoma cells; format: functional, cell-based
[21] = system: Malme-3M; test: Growth inhibition of the MALME-3M Melanoma cancer cell line for 2-day in vitro assay.; format: functional; conditions: Homo sapiens, 48 h
[22] = system: OVCAR-3; test: Growth inhibition of the OVCAR-3 Ovarian cancer cell line for 2-day in vitro assay.; format: functional; conditions: Homo sapiens, OVCAR-3, 48 h
[23] = system: NCI-H522; test: Growth inhibition of the NCI-H522 non-small cell lung cancer cell line for 2-day in vitro assay.; format: functional; conditions: Homo sapiens, NCI-H522, 48 h
[24] = system: NCI-H226; test: Growth inhibition of the NCI-H226 non-small cell lung cancer cell line for 2-day in vitro assay.; format: functional; conditions: Homo sapiens, NCI-H226, 48 h
[25] = system: NCI-H322M; test: Growth inhibition of the NCI-H322M non-small cell lung cancer cell line for 2-day in vitro assay.; format: functional; conditions: Homo sapiens, 48 h
[26] = system: OVCAR-8; test: Growth inhibition of the OVCAR-8 Ovarian cancer cell line for 2-day in vitro assay.; format: functional; conditions: Homo sapiens, OVCAR-8, 48 h
[27] = system: OVCAR-4; test: Growth inhibition of the OVCAR-4 Ovarian cancer cell line for 2-day in vitro assay.; format: functional; conditions: Homo sapiens, OVCAR-4, 48 h
[28] = system: NCI-H460; test: Growth inhibition of the NCI-H460 non-small cell lung cancer cell line for 2-day in vitro assay.; format: functional; conditions: Homo sapiens, NCI-H460, 48 h
[29] = system: NCI-H23; test: Growth inhibition of the NCI-H23 non-small cell lung cancer cell line for 2-day in vitro assay.; format: functional; conditions: Homo sapiens, NCI-H23, 48 h
[30] = system: OVCAR-5; test: Growth inhibition of the OVCAR-5 Ovarian cancer cell line for 2-day in vitro assay.; format: functional; conditions: Homo sapiens, OVCAR-5, 48 h
[31] = system: PC-3; test: Growth inhibition of the PC-3 Prostate cancer cell line for 2-day in vitro assay.; format: functional; conditions: Homo sapiens, PC-3, 48 h
[32] = system: RXF 393; test: Growth inhibition of the RXF-393 Renal cancer cell line for 2-day in vitro assay.; format: functional; conditions: Homo sapiens, RXF 393, 48 h
[33] = system: SF-268; test: Growth inhibition of the SF-268 CNS cancer cell line for 2-day in vitro assay.; format: functional; conditions: Homo sapiens, SF-268, 48 h
[34] = system: SK-MEL-2; test: Growth inhibition of the SK-MEL-2 Melanoma cancer cell line for 2-day in vitro assay.; format: functional; conditions: Homo sapiens, SK-MEL-2, 48 h
[35] = system: SW-620; test: Growth inhibition of the SW-620 colon cancer cell line for 2-day in vitro assay.; format: functional; conditions: Homo sapiens, SW-620, 48 h
[36] = system: SN12C; test: Growth inhibition of the SN12C Renal cancer cell line for 2-day in vitro assay.; format: functional; conditions: Homo sapiens, 48 h
[37] = system: SNB-19; test: Growth inhibition of the SNB19 CNS cancer cell line for 2-day in vitro assay.; format: functional; conditions: Homo sapiens, SNB-19, 48 h
[38] = system: SF-295; test: Growth inhibition of the SF-295 CNS cancer cell line for 2-day in vitro assay.; format: functional; conditions: Homo sapiens, SF-295, 48 h
[39] = system: SR; test: Growth inhibition of the SR leukemia cell line for 2-day in vitro assay.; format: functional; conditions: Homo sapiens, 48 h
[40] = system: SK-MEL-5; test: Growth inhibition of the SK-MEL-5 Melanoma cancer cell line for 2-day in vitro assay.; format: functional; conditions: Homo sapiens, SK-MEL-5, 48 h
[41] = system: SNB-75; test: Growth inhibition of the SNB-75 CNS cancer cell line for 2-day in vitro assay.; format: functional; conditions: Homo sapiens, SNB-75, 48 h
[42] = system: SK-MEL-28; test: Growth inhibition of the SK-MEL-28 Melanoma cancer cell line for 2-day in vitro assay.; format: functional; conditions: Homo sapiens, SK-MEL-28, 48 h
[43] = system: TK-10; test: Growth inhibition of the TK-10 Renal cancer cell line for 2-day in vitro assay.; format: functional; conditions: Homo sapiens, TK-10, 48 h
[44] = system: T47D; test: Growth inhibition of the T-47D Breast cancer cell line for 2-day in vitro assay.; format: functional; conditions: Homo sapiens, 48 h
[45] = system: UO-31; test: Growth inhibition of the UO-31 Renal cancer cell line for 2-day in vitro assay.; format: functional; conditions: Homo sapiens, UO-31, 48 h
[46] = system: UACC-257; test: Growth inhibition of the UACC-257 Melanoma cancer cell line for 2-day in vitro assay.; format: functional; conditions: Homo sapiens, UACC-257, 48 h
[47] = system: U-251; test: Growth inhibition of the U251 CNS cancer cell line for 2-day in vitro assay.; format: functional; conditions: Homo sapiens, U-251, 48 h
[48] = system: UACC-62; test: Growth inhibition of the UACC-62 Melanoma cancer cell line for 2-day in vitro assay.; format: functional; conditions: Homo sapiens, UACC-62, 48 h
[49] = system: NCI/ADR-RES; test: Growth inhibition of the NCI/ADR-RES Breast cancer cell line for 2-day in vitro assay.; format: functional; conditions: Homo sapiens, 48 h
[50] = system: SK-OV-3; test: Growth inhibition of the SK-OV-3 Ovarian cancer cell line for 2-day in vitro assay.; format: functional; conditions: Homo sapiens, SK-OV-3, 48 h
[51] = system: HT-29; test: Growth inhibition of the HT-29 colon cancer cell line for 2-day in vitro assay.; format: functional; conditions: Homo sapiens, HT-29, 48 h
[52] = system: MDA-MB-231; test: Growth inhibition of the […] Breast cancer cell line for 2-day in vitro assay.; format: functional; conditions: Homo sapiens, MDA-MB-231, 48 h
[53] = system: MCF7; test: Growth inhibition of the MCF-7 Breast cancer cell line for 2-day in vitro assay.; format: functional; conditions: Homo sapiens, MCF7, 48 h
[54] = system: MOLT-4; test: Growth inhibition of the MOLT-4 leukemia cell line for 2-day in vitro assay.; format: functional; conditions: Homo sapiens, MOLT-4, 48 h
[55] = system: BT-549; test: Growth inhibition of the BT-549 Breast cancer cell line for 2-day in vitro assay.; format: functional; conditions: Homo sapiens, BT-549, 48 h

GI50 [1]: 29.5 µM
GI50 [3]: 34.7 µM
GI50 [4]: 53.7 µM
GI50 [5]: 0.794 µM
GI50 [6]: > 100 µM
GI50 [7]: 33.9 µM
GI50 [9]: > 100 µM
GI50 [11]: 43.7 µM
GI50 [12]: > 100 µM
GI50 [15]: 36.3 µM
GI50 [19]: 89.1 µM
GI50 [22]: 38.9 µM
GI50 [23]: 30.2 µM
GI50 [24]: 60.3 µM
GI50 [25]: 39.8 µM
GI50 [26]: > 100 µM
GI50 [27]: 37.2 µM
GI50 [28]: 38.9 µM
GI50 [29]: 12.6 µM
GI50 [30]: 83.2 µM
GI50 [31]: 50.1 µM
GI50 [34]: > 100 µM
GI50 [35]: 66.1 µM
GI50 [40]: 52.5 µM
GI50 [42]: 64.6 µM
GI50 [44]: 22.4 µM
GI50 [47]: 31.6 µM
GI50 [50]: 37.2 µM
GI50 [51]: 37.2 µM
GI50 [52]: 44.7 µM
GI50 [53]: 56.2 µM
GI50 [54]: 26.9 µM
GI50 [55]: 14.1 µM
SMILES: Cc1cc(-c2nc3ccc(O)cc3s2)ccc1N
GI50 [2]: 41.7 µM
GI50 [8]: 4.07 µM
GI50 [10]: 30.9 µM
GI50 [13]: > 100 µM
GI50 [14]: 95.5 µM
GI50 [16]: 57.5 µM
GI50 [17]: 33.1 µM
GI50 [18]: > 100 µM
IC50 [20]: < 0.001 µM
GI50 [21]: 83.2 µM
GI50 [32]: 30.2 µM
GI50 [33]: 35.5 µM
GI50 [36]: 38.9 µM
GI50 [37]: 45.7 µM
GI50 [38]: 31.6 µM
GI50 [39]: 21.9 µM
GI50 [41]: 15.8 µM
GI50 [43]: 77.6 µM
GI50 [45]: 21.4 µM
GI50 [46]: > 100 µM
GI50 [48]: 57.5 µM
GI50 [49]: 91.2 µM

SMILES: CC(=O)Nc1ccc(-c2nc3ccc(O)cc3s2)cc1C
IC50 [20]: 46.1 µM

SMILES: Nc1ccc(-c2nc3cc(O)ccc3s2)cc1Cl
IC50 [20]: 60.6 µM

SMILES: CC(=O)ON(C(C)=O)c1ccc(-c2nc3ccccc3s2)cc1
IC50 [20]: < 0.001 µM

SMILES: Nc1ccc(-c2nc3ccccc3s2)cc1Cl
IC50 [20]: < 0.001 µM

SMILES: Cc1cc(-c2nc3c(O)cccc3s2)ccc1N
IC50 [20]: > 100 µM
